From patent US6071944A, “Method of treatment of pigmented cancer cells utilizing photodynamic therapy” (Bowling Green State University, priority 1997, dated 2000)
Entries after “also recorded” stand apart in the source; their conditions may differ.

Columns and labels:
Amelanotic melanoma = settings: cited from earlier work
pigmented melanoma = settings: very virulent pigmented melanoma; cited from earlier work
[1] = Effect of 1064 nm light on the photosensitizer (recovery, group II); format: in vivo, C57 mice; settings: injected 24 and 48 h before irradiation
Description: (§1) SiNc incorporated into DPPC liposomes was injected at a dose of 1 mg/kg body weight into the caudal vein of C57 mice bearing the B16 pigmented melanoma. Three groups of mice (three mice per each time point) were used: (a) unirradiated control mice; (b) mice injected immediately after irradiation with the Nd: YAG laser (1064 nm, one pulse, 650 mJ); (c) mice injected at 24 h or 48 h before irradiation under the same conditions indicated for group (b). In all cases, at 3, 24 and 48 h after injection of isoBO--SiNc (groups a and b) and immediately after irradiation (group c), the mice were sacrificed by prolonged exposure to ether vapor. The blood was rapidly taken, centrifuged at 3000 rpm for 10 min. to remove the erythrocytes, and the serum was analyzed for its isoBO--SiNc content by a spectrophotofluorimetric procedure (4) using 690 nm as the excitation wavelength. The liver, tumor and peritumoral skin (namely an area with a 0.5 cm width surrounding the tumor) were excised and their isoBO--SiNc content was determined spectrophotofluorimetrically as previously described (4,5).
II = mice injected at 24 and 48 h before irradiation (1064 nm, 650 mJ, 1
Special attention was paid to the recoveries obtained at 24 h and 48 h after injection since these time intervals correspond with the maximum isoBO--SiNc accumulation in a variety of transplanted tumors and are generally used for PDT. […]

[2] = design: species or system C57 mice; settings: mouse, in vivo, iv, 1 mg/kg, 3 h
Description: as §1
The pharmacokinetic behavior of systematically injected isoBO--SiNc in unirradiated and 1064 nm-irradiated (650 mJ, one pulse) C57 mice is shown in Table 1.
C = control mice (mice not irradiated) […]
Values ± SD; three mice were independently analyzed each time, with th
exception of I where six mice were analyzed.

B16 pigmented melanoma = experiment: Photodynamic therapy and high peak power irradiation studies: tumour regrowth of B16 pigmented melanoma; format: in vivo, C57 mice
Description: Female C57/BL6 and BALB/C mice (18-20 g body weight) obtained from Harlan Spraque Dawley, Inc. (Indianapolis, Ind.) were used as experimental models. B16 pigmented melanoma (the B16 cell line was obtained from American Type Culture Collection) was subcutaneously transplanted into the upper flank by injecting […] of a sterile cell suspension in PBS. The cell line was cultured in Dulbecco's modified minimal essential medium supplemented with 10% fetal calf serum. The cell culture was maintained at 37° C. in a humidified atmosphere of 5% CO2 in air. All of our experiments were performed at 5-7 days after injection of B16 melanoma cells, when the tumor volume was in the range of 0.02-0.04 cm^3 with an external diameter of 0.4-0.6 cm and a depth of 0.15-0.2 cm.
When the tumor diameter was in the range of 0.4-0.6 cm, groups of 7-8 B16 melanoma bearing mice were irradiated with 1064 nm light from the Nd: YAG laser at 500 or 650 mJ per pulse (HPP). In one group of mice at 24 h after isoBO--SiNc injection (1 mg/kg) the tumor area was exposed to 774 nm light from a dye laser which was operated at a fluence rate of 300 mW/cm^2 for a total light fluence of 520 J/cm^2. This PDT treatment was performed, in other two groups, also before or after the tumors had been exposed to 1064 nm light from the Nd: YAG (650 mJ). Another group of 8 mice was treated with PDT (isoBO--SiNc 1 mg/kg, 300 mW/cm^2, 520 J/cm^2) preceded by HPP (1064 nm, 650 mJ) and retreated in the same way 10 days later, when the tumors were regrowing.
In a parallel set of experiments, a sequential treatment involving HPP and PDT (with the same irradiation conditions mentioned above) was followed by an immediate further irradiation at 550 mW/cm^2 and 200 j/cm^2 from the same 774 nm light. For each group the effectiveness of the treatment was evaluated by comparing the rate of tumor growth of the irradiated mice with that observed for control mice transplanted simultaneously with the phototreated mice but not exposed to light and not injected with isoBO--SiNc. The tumor size was measured daily by means of a caliper. Individual tumor volumes (V) were calculated by assuming a hemiellipsoidal structure for the tumor nodule and measuring the two perpendicular axes (a and b) and the height (c). Application of the relationship V 2/3(a/2×b/2×c) provided the tumor volume. The time to reach a defined tumor volume was calculated for the individual tumors.
Special attention was paid to the recoveries obtained at 24 h and 48 h after injection since these time intervals correspond with the maximum isoBO--SiNc accumulation in a variety of transplanted tumors and are generally used for PDT. The data obtained for control mice were in good agreement with those previously found in our laboratory. […] On the basis of the above described findings, a PDT experiment (776 nm; 300 mW/cm^2 -520 J/cm^2) was performed at 24 h post injection, immediately after HPP irradiation with a single 650 mJ pulse of 1064 nm light.
HPP: High Peak Power irradiation from Nd: YAG laser, 1064 nm, […] per
PDT: Photodynamic Therapy from dye laser, 774 nm, 300 mW/cm^2, 520
PTT: Photothermal Therapy from dye laser, 774 nm, 550 mW/cm^2, 200
*Difference between the growth time for treated and control mice. The
growth time is the time interval for the tumour to grow to a volume of 1
cm^3 from the size at the time of irradiation (0.03-0.04 cm^3).
The growth time of control mice was 11 days.

Compound | response of amelanotic melanoma to Photofrin-PDT (Amelanotic melanoma) | response of pigmented melanoma to PDT (pigmented melanoma) | effect of 1064 nm irradiation on recovery / integrity of the photosensitizer [1] | Recovery of isoBO-SiNc from selected tissues: peritumoural skin [2] | delay of tumor regrowth (B16 pigmented melanoma; 1 mg/kg, PDT 300 mW/cm^2, 520 J/cm^2, 776 nm diode laser immediately after 1064 nm irradiation) | Mice tumour free time (B16 pigmented melanoma; HPP + PDT) | Mice tumour free time (B16 pigmented melanoma; HPP + PDT + HPP + PDT (retreated 10 days later)) | Regrowth delay (B16 pigmented melanoma; HPP + PDT + HPP + PDT (retreated 10 days later), growth time to 1 cm^3 vs control mice) | Mice tumour free time (B16 pigmented melanoma; HPP + PDT + PTT (774 nm, 550 mW/cm^2, 200 J/cm^2)) | Regrowth delay (B16 pigmented melanoma; HPP + PDT + PTT, growth time to 1 cm^3 vs control mice) | Regrowth delay (B16 pigmented melanoma; HPP + PDT, growth time to 1 cm^3 vs control mice) | tumor response to combined HPP and PDT (B16 pigmented melanoma; HPP irradiation followed by PDT) | Mice tumour free time (B16 pigmented melanoma; PDT (774 nm, 300 mW/cm^2, 520 J/cm^2), 1 mg/kg) | animals essentially tumor-free post-PDT (B16 pigmented melanoma; PDT (776 nm; 300 mW/cm^2, 520 J/cm^2) 24 h post injection, immediately after HPP 650 mJ pulse, FIG. 3) | Mice tumour free time (B16 pigmented melanoma; PDT + HPP (1064 nm Nd:YAG, 650 mJ per pulse)) | Regrowth delay (B16 pigmented melanoma; PDT + HPP, growth time to 1 cm^3 vs control mice) | delay of tumor regrowth (B16 pigmented melanoma; PDT under identical conditions without the pre-irradiation) | Regrowth delay (B16 pigmented melanoma; PDT, difference in growth time to 1 cm^3 between treated and control mice)
Photofrin | successfully treated | poorly responsive | – | – | – | – | – | – | – | – | – | – | – | – | – | – | – | –
CCCCCCCCCCCCCCCCCC[Si]([O-])(CC(C)C)CC(C)C.CCCCCCCCCCCCCCCCCC[Si]([O-])(CC(C)C)CC(C)C.[Si+4].c1ccc2cc3c(cc2c1)-c1nc2nc(nc4[n-]c(nc5[n-]c(nc-3n1)c1cc3ccccc3cc51)c1cc3ccccc3cc41)-c1cc3ccccc3cc1-2 [isoBO-SiNc, Bis(di-isobutyloctadecylsiloxy)-2,3-naphthalocyanato silicon] | – | – | no appreciable effect on the recovery; also recorded: not affected by 1064 nm light | 0.44 ± 0.1 μg of drug per g | 11 days | 9 days | 21 days | 27 days | 22 days | 34.6 days | 16.4 days | remarkable retardation in tumor growth rate; also recorded: significant tumor response which is markedly larger than that obtained with either treatment alone | 2 days | ~11 days | 2 days | 7 days | 4 days | 6.3 days
